Experimental data from ChEMBL document CHEMBL4038324, “Amidoalkylindoles as Potent and Selective Cannabinoid Type 2 Receptor Agonists with in Vivo Efficacy in a Mouse Model of Multiple Sclerosis” (J Med Chem, 2017).
The source made the active and inactive calls. The rule behind the calls is not given here.

What was measured:
Cannabinoid receptor 2 [1] = biological target: T1, Cannabinoid receptor 2 (Homo sapiens, UniProt P34972); experiment: Agonist activity at human CB2 receptor expressed in CHO cells assessed as induction of Ca2+ flux after 10 mins by Fluor-4 AM dye based assay; assay type: functional, cell-based
[2] = biological target: T2, Cannabinoid receptor 1 (CB1) (Homo sapiens, UniProt P21554); experiment: Antagonist activity at human CB1 receptor expressed in CHO cells assessed as inhibition of CP55940-induced Ca2+ flux at 10 uM preincubated for 10 mins followed by agonist addition by Fluor-4 AM dye based assay; assay type: cell-based; settings: CHO cells expressing human CB1 receptor
Cannabinoid receptor 2 [3] = biological target: T1, Cannabinoid receptor 2; experiment: Agonist activity at human CB2 receptor expressed in CHO cells assessed as induction of Ca2+ flux after 10 mins by Fluor-4 AM dye based assay relative to CP55940; assay type: functional, cell-based
Cannabinoid receptor 1 [4] = biological target: T3, Cannabinoid receptor 1 (Homo sapiens, UniProt P21554); experiment: Agonist activity at human CB1 receptor expressed in CHO cells assessed as induction of Ca2+ flux at 10 uM after 10 mins by Fluor-4 AM dye based assay; assay type: cell-based
Cannabinoid receptor 2 [5] = biological target: T1, Cannabinoid receptor 2; experiment: Antagonist activity at human CB2 receptor expressed in CHO cells assessed as inhibition of CP55940-induced Ca2+ flux at 10 uM preincubated for 10 mins followed by agonist addition by Fluor-4 AM dye based assay; assay type: functional, cell-based
Cannabinoid receptor 2 [6] = biological target: T1, Cannabinoid receptor 2; experiment: Agonist activity at human N-terminal HA-tagged CB2 receptor expressed in mouse AtT20 cells by FLIPR membrane potential assay; assay type: cell-based
Cannabinoid receptor 1 [7] = biological target: Cannabinoid receptor 1 (Rattus norvegicus, UniProt P20272); experiment: Agonist activity at rat CB1 receptor expressed in mouse AtT20 cells by FLIPR membrane potential assay; assay type: cell-based
Cannabinoid receptor 2 [8] = biological target: T1, Cannabinoid receptor 2; experiment: Agonist activity at human CB2 receptor expressed in CHO cells assessed as induction of Ca2+ flux at 10 uM after 10 mins by Fluor-4 AM dye based assay; assay type: functional, cell-based
[9] = biological target: T2, Cannabinoid receptor 1 (CB1); experiment: Agonist activity at human CB1 receptor expressed in CHO cells assessed as induction of Ca2+ flux after 10 mins by Fluor-4 AM dye based assay relative to CP55940; assay type: cell-based; settings: CHO cells expressing human CB1 receptor
Cannabinoid receptor 1 [10] = biological target: T3, Cannabinoid receptor 1; experiment: Agonist activity at human CB1 receptor expressed in CHO cells assessed as induction of Ca2+ flux after 10 mins by Fluor-4 AM dye based assay; assay type: cell-based
Cannabinoid receptor 2 [11] = biological target: T1, Cannabinoid receptor 2; experiment: Antagonist activity at human CB2 receptor expressed in CHO cells assessed as inhibition of CP55940-induced Ca2+ flux preincubated for 10 mins followed by agonist addition by Fluor-4 AM dye based assay; assay type: functional, cell-based

T2 sequence (P21554 whole entry): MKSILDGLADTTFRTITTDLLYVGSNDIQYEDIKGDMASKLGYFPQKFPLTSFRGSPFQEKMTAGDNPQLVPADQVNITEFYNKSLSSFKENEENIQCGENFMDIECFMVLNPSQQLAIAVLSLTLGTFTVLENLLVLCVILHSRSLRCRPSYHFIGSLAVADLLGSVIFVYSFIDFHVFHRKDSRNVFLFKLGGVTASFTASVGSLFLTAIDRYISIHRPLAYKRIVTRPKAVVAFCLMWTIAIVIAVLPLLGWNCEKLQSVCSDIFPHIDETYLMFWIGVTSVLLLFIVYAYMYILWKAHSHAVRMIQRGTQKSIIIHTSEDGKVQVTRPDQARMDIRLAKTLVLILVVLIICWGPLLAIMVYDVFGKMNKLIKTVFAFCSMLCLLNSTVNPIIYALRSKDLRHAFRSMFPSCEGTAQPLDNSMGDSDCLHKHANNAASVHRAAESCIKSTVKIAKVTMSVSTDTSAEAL
T3 sequence (P21554 whole entry): as above
T1 sequence (P34972 whole entry): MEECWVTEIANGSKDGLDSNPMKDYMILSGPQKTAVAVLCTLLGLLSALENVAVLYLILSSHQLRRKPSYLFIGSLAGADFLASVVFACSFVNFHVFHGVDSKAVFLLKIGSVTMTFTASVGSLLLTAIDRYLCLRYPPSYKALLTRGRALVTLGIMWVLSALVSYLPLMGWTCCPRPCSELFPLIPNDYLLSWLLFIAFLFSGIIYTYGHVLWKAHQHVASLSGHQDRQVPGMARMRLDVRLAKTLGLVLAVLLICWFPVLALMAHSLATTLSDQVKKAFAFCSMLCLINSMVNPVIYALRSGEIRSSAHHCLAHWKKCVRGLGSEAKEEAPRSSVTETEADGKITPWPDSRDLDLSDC
Sequence of Cannabinoid receptor 1 (Rattus norvegicus, UniProt P20272) (P20272 whole entry): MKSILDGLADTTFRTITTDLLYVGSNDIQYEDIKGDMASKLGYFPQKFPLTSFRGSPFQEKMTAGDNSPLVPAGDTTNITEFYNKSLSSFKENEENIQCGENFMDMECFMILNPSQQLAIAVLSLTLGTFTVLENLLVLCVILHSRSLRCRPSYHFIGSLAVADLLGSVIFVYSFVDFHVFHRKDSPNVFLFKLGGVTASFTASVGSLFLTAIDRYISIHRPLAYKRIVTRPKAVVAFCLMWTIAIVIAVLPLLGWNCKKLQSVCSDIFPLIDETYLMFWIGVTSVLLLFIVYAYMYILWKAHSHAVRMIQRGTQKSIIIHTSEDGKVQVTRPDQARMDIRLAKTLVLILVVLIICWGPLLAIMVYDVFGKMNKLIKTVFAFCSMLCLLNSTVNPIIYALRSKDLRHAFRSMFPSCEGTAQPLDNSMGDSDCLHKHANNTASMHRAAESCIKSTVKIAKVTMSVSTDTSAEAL

SMILES | EC50 (Cannabinoid receptor 2 [1]) [nM] | inhibition at 10 min, 10 µM [2] [%] | Emax (Cannabinoid receptor 2 [3]) | Activity (Cannabinoid receptor 1 [4]) [%] | inhibition (Cannabinoid receptor 2 [5]) [%] | EC50 (Cannabinoid receptor 2 [6]) [nM] | EC50 (Cannabinoid receptor 1 [7]) [nM] | Activity (Cannabinoid receptor 2 [8]) [%] | Emax at 10 min [9] [%] | EC50 (Cannabinoid receptor 1 [10]) [nM] | IC50 (Cannabinoid receptor 2 [11]) [nM]
O=C(NC12CC3CC(CC(C3)C1)C2)c1cc2ccccc2n1CCCC(F)(F)F | 490 | < 50 | 63.3% | < 50 | < 50 | – | – | – | – | – | –
N#CCCCCn1c(C(=O)NC23CC4CC(CC(C4)C2)C3)cc2ccccc21 | 75 | < 50 | 41.7% | < 50 | < 50 | – | – | – | – | – | –
CCCCCn1cc(C(=O)CC23CC4CC(CC(C4)C2)C3)c2ccccc21 | – | – | – | – | – | 29 to 89 | 35 to 40 | – | – | – | –
O=CCCCCn1c(C(=O)NC23CC4CC(CC(C4)C2)C3)cc2ccccc21 | 180 | < 50 | 73.3% | < 50 | < 50 | – | – | – | – | – | –
O=C(NC12CC3CC(CC(C3)C1)C2)c1cc2ccccc2n1CCCCCF | 140 | < 50 | 53.3% | < 50 | < 50 | – | – | – | – | – | –
COc1ccc2c(c1)c(C(=O)NC13CC4CC(CC(C4)C1)C3)cn2CCN1CCOCC1 | – | < 50 | – | < 50 | < 50 | – | – | < 50 | – | – | –
NCCCCn1c(C(=O)NC23CC4CC(CC(C4)C2)C3)cc2ccccc21 | 4700 | < 50 | 86.7% | < 50 | < 50 | – | – | – | – | – | –
O=C(NC12CC3CC(CC(C3)C1)C2)c1cc2ccccc2n1CCCCC(F)F | 92 | < 50 | 60% | < 50 | < 50 | – | – | – | – | – | –
O=C(NC12CC3CC(CC(C3)C1)C2)c1cn(CCCCCO)c2ccccc12 | 62 | < 50 | 63.3% | – | < 50 | – | – | – | 76.7 | 4100 | –
O=C(NC12CC3CC(CC(C3)C1)C2)c1cc2ccccc2n1CCN1CCOC1=O | 220 | < 50 | 66.7% | < 50 | < 50 | – | – | – | – | – | –
N#CCCn1cc(C(=O)NC23CC4CC(CC(C4)C2)C3)c2ccccc21 | 180 | < 50 | 73.3% | < 50 | < 50 | – | – | – | – | – | –
N#CCCCCn1c(C(=O)Nc2ccccc2)cc2ccccc21 | 200 | < 50 | 48.3% | < 50 | < 50 | – | – | – | – | – | –
CCCCCn1c(C(=O)NC23CC4CC(CC(C4)C2)C3)cc2ccccc21 | 720 | < 50 | 53.3% | < 50 | < 50 | – | – | – | – | – | –
O=C(NC12CC3CC(CC(C3)C1)C2)c1cc2ccccc2n1CCCO | 160 | < 50 | 86.7% | < 50 | < 50 | – | – | – | – | – | –
O=C(NC1CCCCC1)c1cc2ccccc2n1CCCCCO | 420 | < 50 | 50% | < 50 | < 50 | – | – | – | – | – | –
O=C(NC12CC3CC(CC(C3)C1)C2)c1c[nH]c2ccccc12 | 630 | < 50 | 75% | < 50 | < 50 | – | – | – | – | – | –
N#CCCCn1cc(C(=O)NC23CC4CC(CC(C4)C2)C3)c2ccccc21 | 31 | < 50 | 70% | – | < 50 | – | – | – | 105 | 630 | –
N#CCCn1c(C(=O)NC23CC4CC(CC(C4)C2)C3)cc2ccccc21 | 150 | < 50 | 93.3% | < 50 | < 50 | – | – | – | – | – | –
CSc1cccc2c(C(=O)NC34CC5CC(CC(C5)C3)C4)cn(CCN3CCOCC3)c12 | > 100000 | < 50 | – | < 50 | – | – | – | < 50 | – | – | 28
O=C(NC12CC3CC(CC(C3)C1)C2)c1cn(CCN2CCOCC2)c2ccccc12 | 59 | < 50 | 56.7% | – | < 50 | – | – | – | 75 | 3300 | > 100000
N#CCCCn1c(C(=O)NC23CC4CC(CC(C4)C2)C3)cc2ccccc21 | 270 | < 50 | 61.7% | < 50 | < 50 | – | – | – | – | – | –

SMILES | EC50 (Cannabinoid receptor 2 [1]) [nM] | inhibition at 10 min, 10 µM [2] [%] | Emax (Cannabinoid receptor 2 [3]) | Activity (Cannabinoid receptor 1 [4]) [%] | inhibition (Cannabinoid receptor 2 [5]) [%] | EC50 (Cannabinoid receptor 2 [6]) [nM] | EC50 (Cannabinoid receptor 1 [7]) [nM] | Activity (Cannabinoid receptor 2 [8]) [%] | Emax at 10 min [9] [%] | EC50 (Cannabinoid receptor 1 [10]) [nM] | IC50 (Cannabinoid receptor 2 [11]) [nM]
O=C(NC12CC3CC(CC(C3)C1)C2)c1[nH]c2ccccc2c1F | 3800 | < 50 | 83.3% | < 50 | < 50 | – | – | – | – | – | –
O=C(NC1CCCC1)c1cc2ccccc2n1CCCCCO | – | < 50 | – | < 50 | < 50 | – | – | < 50 | – | – | –
CCCCCn1cc(C(=O)C23CC4CC(CC(C4)C2)C3)c2ccccc21 | – | – | – | – | – | 29 to 89 | 35 to 40 | – | – | – | –
O=C(NC12CC3CC(CC(C3)C1)C2)c1cc2ccccc2n1CCCCCO | 100 | < 50 | 70% | < 50 | < 50 | – | – | – | – | – | –
N#CCn1cc(C(=O)NC23CC4CC(CC(C4)C2)C3)c2ccccc21 | 410 | < 50 | 66.3% | < 50 | < 50 | – | – | – | – | – | –
NCCCCCn1c(C(=O)NC23CC4CC(CC(C4)C2)C3)cc2ccccc21 | 8600 | < 50 | 93.3% | < 50 | < 50 | – | – | – | – | – | –
CC(C)(C)NC(=O)c1cc2ccccc2n1CCCCCO | 430 | < 50 | 51.7% | < 50 | < 50 | – | – | – | – | – | –
COCCCCCn1cc(C(=O)NC23CC4CC(CC(C4)C2)C3)c2ccccc21 | 82 | < 50 | 70% | < 50 | < 50 | – | – | – | – | – | –
C[S+]([O-])c1cccc2c(C(=O)NC34CC5CC(CC(C5)C3)C4)cn(CCN3CCOCC3)c12 (stereo unspecified) | – | < 50 | – | < 50 | < 50 | – | – | < 50 | – | – | –
COc1cccc2c(C(=O)NC34CC5CC(CC(C5)C3)C4)cn(CCN3CCOCC3)c12 | > 100000 | < 50 | – | < 50 | – | – | – | < 50 | – | – | 16
O=C(O)CCCCn1c(C(=O)NC23CC4CC(CC(C4)C2)C3)cc2ccccc21 | 7130 | < 50 | 43.3% | < 50 | < 50 | – | – | – | – | – | –
O=C(NC12CC3CC(CC(C3)C1)C2)c1cn(CCCCO)c2ccccc12 | 160 | < 50 | 68.3% | – | < 50 | – | – | – | 58.3 | 13000 | –
O=C(NC12CC3CC(CC(C3)C1)C2)c1cc2ccccc2n1CC1CCOCC1 | 410 | < 50 | 41.7% | < 50 | < 50 | – | – | – | – | – | –
O=C(NC12CC3CC(CC(C3)C1)C2)c1cn(CC2CCOCC2)c2ccccc12 | 38 | < 50 | 76.7% | – | < 50 | – | – | – | 133 | 84 | –
COc1cccc2c1c(C(=O)NC13CC4CC(CC(C4)C1)C3)cn2CCN1CCOCC1 | – | < 50 | – | < 50 | < 50 | – | – | < 50 | – | – | –
O=C(NC12CC3CC(CC(C3)C1)C2)c1c(F)c2ccccc2n1CCCCCO | 610 | < 50 | 60% | < 50 | < 50 | – | – | – | – | – | –
Cc1cccc2c(C(=O)NC34CC5CC(CC(C5)C3)C4)cn(CCN3CCOCC3)c12 | – | < 50 | inactive | – | < 50 | – | – | < 50 | 63.3 | 6700 | –
O=C(NC12CC3CC(CC(C3)C1)C2)c1cc2ccccc2[nH]1 | 980 | < 50 | 66.7% | < 50 | < 50 | – | – | – | – | – | –
N=C(N)NCCCCCn1c(C(=O)NC23CC4CC(CC(C4)C2)C3)cc2ccccc21 | – | < 50 | – | < 50 | < 50 | – | – | < 50 | – | – | –
Cc1cccc2c(C(=O)NC34CC5CC(CC(C5)C3)C4)c[nH]c12 | 500 | < 50 | 60% | < 50 | < 50 | – | – | – | – | – | –
O=C(NC12CC3CC(CC(C3)C1)C2)c1c(F)c2ccccc2n1CCCCO | 410 | < 50 | 46.7% | < 50 | < 50 | – | – | – | – | – | –
